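Where inhibition never reached the appropriate level, the endpoint shown equals the highest concentration tested. Otherwise, values were interpolated linearly from a five-concentration, 48-hour dose response in 96-well plates. The concentration for full growth arrest is given as TGI.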
Experiments:
Test in all cases: inhibition of tumour cell growth, NCI panel, 48 h
786-0 renal = system: 786-0 renal
A549 NSCLC = system: A549 NSCLC
ACHN renal = system: ACHN renal
BT-549 breast = system: BT-549 breast
CAKI-1 renal = system: CAKI-1 renal
CCRF-CEM leukemia = system: CCRF-CEM leukemia
COLO 205 colon = system: COLO 205 colon
DU-145 prostate = system: DU-145 prostate
EKVX NSCLC = system: EKVX NSCLC
HCC-2998 colon = system: HCC-2998 colon
HCT-116 colon = system: HCT-116 colon
HCT-15 colon = system: HCT-15 colon
HL-60(TB) leukemia = system: HL-60(TB) leukemia
HOP-62 NSCLC = system: HOP-62 NSCLC
HOP-92 NSCLC = system: HOP-92 NSCLC
HS 578T breast = system: HS 578T breast
HT29 colon = system: HT29 colon
IGROV1 ovarian = system: IGROV1 ovarian
K-562 leukemia = system: K-562 leukemia
KM12 colon = system: KM12 colon
LOX IMVI melanoma = system: LOX IMVI melanoma
M14 melanoma = system: M14 melanoma
MALME-3M melanoma = system: MALME-3M melanoma
MCF7 breast = system: MCF7 breast
MDA-MB-231 breast = system: MDA-MB-231 breast
MDA-MB-435 = system: MDA-MB-435
MDA-N = system: MDA-N
MOLT-4 leukemia = system: MOLT-4 leukemia
NCI-H226 lung = system: NCI-H226 lung
NCI-H23 lung = system: NCI-H23 lung
NCI-H460 lung = system: NCI-H460 lung
NCI-H522 lung = system: NCI-H522 lung
NCI/ADR-RES ovarian = system: NCI/ADR-RES ovarian
OVCAR-3 ovarian = system: OVCAR-3 ovarian
OVCAR-4 ovarian = system: OVCAR-4 ovarian
OVCAR-5 ovarian = system: OVCAR-5 ovarian
OVCAR-8 ovarian = system: OVCAR-8 ovarian
PC-3 prostate = system: PC-3 prostate
RPMI-8226 leukemia = system: RPMI-8226 leukemia
SF-268 CNS = system: SF-268 CNS
SF-295 CNS = system: SF-295 CNS
SF-539 CNS = system: SF-539 CNS
SK-MEL-2 melanoma = system: SK-MEL-2 melanoma
SK-MEL-28 melanoma = system: SK-MEL-28 melanoma
SK-MEL-5 melanoma = system: SK-MEL-5 melanoma
SK-OV-3 ovarian = system: SK-OV-3 ovarian
SN12C renal = system: SN12C renal
SNB-19 CNS = system: SNB-19 CNS
SNB-75 CNS = system: SNB-75 CNS
SR leukemia = system: SR leukemia
SW-620 colon = system: SW-620 colon
T-47D breast = system: T-47D breast
TK-10 renal = system: TK-10 renal
U251 CNS = system: U251 CNS
UACC-257 melanoma = system: UACC-257 melanoma
UACC-62 melanoma = system: UACC-62 melanoma
UO-31 renal = system: UO-31 renal
A498 renal = system: A498 renal

Measured: TGI

CN1/C(=C\N=O)C(C)(C)N(O)C1(C)C
not listed: A498 renal
> 100 µM: all other assays above

O=C1CC=C2C3CC4N(CCC45c4ccccc4N1C25)C/C3=C\CO (configuration not stated)
not listed: HOP-62 NSCLC | M14 melanoma | SR leukemia
> 100 µM: all other assays above

From PubChem BioAssay (NCI)
